How the values were obtained:
Format in all cases: in vivo
[1] = test system: sicklepod (Cassia obtusifolia, CASOB); assay: Pre-emerge test, greenhouse herbicide activity screening; details: Senna obtusifolia, pre-emergence, 336 h, pre-emerge, phytotoxicity rating 0-100 at 14 days after application, read-out: Pre-emerge Herbicidal Activity CASOB; for pest or weed control at 63 g/ha: rate 63 g ai/ha; for pest or weed control at 250 g/ha: rate 250 g ai/ha
How it was run: (§1)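 Compounds in acetone were track-sprayed at 15–1000 g ai/ha: pre-emergence onto soil sown the previous day, then top-watered to incorporate and later bottom-watered; post-emergence onto 2–3 leaf plants with 0.25% v/v surfactant, bottom-watered only. Ratings on a 0–100 phytotoxicity scale were taken at day 14.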

[2] = test system: johnsongrass (Sorghum halepense, SORHA); assay: as above; details: Sorghum halepense, pre-emergence, 336 h, pre-emerge, phytotoxicity rating 0-100 at 14 days after application, read-out: Pre-emerge Herbicidal Activity SORHA
How it was run: as §1

[3] = test system: lambsquarters (Chenopodium album, CHEAL); assay: as above; details: Chenopodium album, pre-emergence, 336 h, pre-emerge, phytotoxicity rating 0-100 at 14 days after application, read-out: Pre-emerge Herbicidal Activity CHEAL; for pest or weed control at 63 g/ha: rate 63 g ai/ha; for pest or weed control at 250 g/ha: rate 250 g ai/ha
How it was run: as §1

[4] = test system: velvetleaf (Abutilon theophrasti, ABUTH); assay: as above; details: Abutilon theophrasti, pre-emergence, 336 h, pre-emerge, phytotoxicity rating 0-100 at 14 days after application, read-out: Pre-emerge Herbicidal Activity ABUTH; for pest or weed control at 63 g/ha: rate 63 g ai/ha; for pest or weed control at 250 g/ha: rate 250 g ai/ha
How it was run: as §1

[5] = test system: barnyardgrass (Echinochloa crus-galli, ECHCG); assay: as above; details: Echinochloa crus-galli, pre-emergence, 336 h, pre-emerge, phytotoxicity rating 0-100 at 14 days after application, read-out: Pre-emerge Herbicidal Activity ECHCG; for pest or weed control at 63 g/ha: rate 63 g ai/ha; for pest or weed control at 250 g/ha: rate 250 g ai/ha
How it was run: as §1

[6] = test system: green foxtail (Setaria viridis, SETVI); assay: as above; details: Setaria viridis, pre-emergence, 336 h, pre-emerge, phytotoxicity rating 0-100 at 14 days after application, read-out: Pre-emerge Herbicidal Activity SETVI; for pest or weed control at 63 g/ha: rate 63 g ai/ha; for pest or weed control at 250 g/ha: rate 250 g ai/ha
How it was run: as §1

[7] = test system: ivyleaf morningglory (Ipomoea hederacea, IPOHE); assay: as above; details: Ipomoea, pre-emergence, 336 h, pre-emerge, phytotoxicity rating 0-100 at 14 days after application, read-out: Pre-emerge Herbicidal Activity IPOHE; for pest or weed control at 63 g/ha: rate 63 g ai/ha; for pest or weed control at 250 g/ha: rate 250 g ai/ha
How it was run: as §1

[8] = test system: large crabgrass (Digitaria sanguinalis, DIGSA); assay: as above; details: Digitaria sanguinalis, pre-emergence, 336 h, pre-emerge, phytotoxicity rating 0-100 at 14 days after application, read-out: Pre-emerge Herbicidal Activity DIGSA; for pest or weed control at 63 g/ha: rate 63 g ai/ha; for pest or weed control at 250 g/ha: rate 250 g ai/ha
How it was run: as §1

[9] = test system: sicklepod (Cassia obtusifolia, CASOB); assay: Post-emerge test, greenhouse herbicide activity screening; details: Senna obtusifolia, post-emergence, 336 h, post-emerge, phytotoxicity rating 0-100 at 14 days after application, read-out: Post-emerge Herbicidal Activity CASOB; for pest or weed control at 63 g/ha: 63 g ai/ha; for pest or weed control at 250 g/ha: 250 g ai/ha
How it was run: (§2)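 Compounds in acetone were track-sprayed at 187 l/ha, 15–1000 g ai/ha, onto sandy loam pots. Pre-emerge seeds were sown one day before spraying, with surface watering afterwards. Post-emerge plants were at the 2–3 leaf stage and sprayed with 0.25% v/v non-ionic surfactant. Injury was rated 0–100 at 14 days.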

[10] = test system: lambsquarters (Chenopodium album, CHEAL); assay: as above; details: Chenopodium album, post-emergence, 336 h, post-emerge, phytotoxicity rating 0-100 at 14 days after application, read-out: Post-emerge Herbicidal Activity CHEAL; for pest or weed control at 63 g/ha: 63 g ai/ha; for pest or weed control at 250 g/ha: 250 g ai/ha
How it was run: as §2

[11] = test system: velvetleaf (Abutilon theophrasti, ABUTH); assay: as above; details: Abutilon theophrasti, post-emergence, 336 h, post-emerge, phytotoxicity rating 0-100 at 14 days after application, read-out: Post-emerge Herbicidal Activity ABUTH; for pest or weed control at 63 g/ha: 63 g ai/ha; for pest or weed control at 250 g/ha: 250 g ai/ha
How it was run: as §2

[12] = test system: barnyardgrass (Echinochloa crus-galli, ECHCG); assay: as above; details: Echinochloa crus-galli, post-emergence, 336 h, post-emerge, phytotoxicity rating 0-100 at 14 days after application, read-out: Post-emerge Herbicidal Activity ECHCG; for pest or weed control at 63 g/ha: 63 g ai/ha; for pest or weed control at 250 g/ha: 250 g ai/ha
How it was run: as §2

[13] = test system: green foxtail (Setaria viridis, SETVI); assay: as above; details: Setaria viridis, post-emergence, 336 h, post-emerge, phytotoxicity rating 0-100 at 14 days after application, read-out: Post-emerge Herbicidal Activity SETVI; for pest or weed control at 63 g/ha: 63 g ai/ha; for pest or weed control at 250 g/ha: 250 g ai/ha
How it was run: as §2

[14] = test system: ivyleaf morningglory (Ipomoea hederacea, IPOHE); assay: as above; details: Ipomoea, post-emergence, 336 h, post-emerge, phytotoxicity rating 0-100 at 14 days after application, read-out: Post-emerge Herbicidal Activity IPOHE; for pest or weed control at 63 g/ha: 63 g ai/ha; for pest or weed control at 250 g/ha: 250 g ai/ha
How it was run: as §2

Row | SMILES | pest or weed control at 63 g/ha [1] | pest or weed control at 250 g/ha [1] | pest or weed control at 63 g/ha [3] | pest or weed control at 250 g/ha [3] | pest or weed control at 63 g/ha [4] | pest or weed control at 250 g/ha [4] | pest or weed control at 63 g/ha [5] | pest or weed control at 250 g/ha [5] | pest or weed control at 63 g/ha [6] | pest or weed control at 250 g/ha [6] | pest or weed control at 63 g/ha [7] | pest or weed control at 250 g/ha [7] | pest or weed control at 63 g/ha [8] | pest or weed control at 250 g/ha [8] | pest or weed control at 250 g/ha [9] | pest or weed control at 250 g/ha [10] | pest or weed control at 250 g/ha [11] | pest or weed control at 250 g/ha [12] | pest or weed control at 250 g/ha [13] | pest or weed control at 250 g/ha [14] | further results
1 | COc1c(Cl)cc(F)c(-n2nc(C)n(C(F)F)c2=O)c1NC(=O)c1ccc2ccccc2c1 [Compound 6-15] | 70% | 80% | 100% | 100% | 100% | 100% | 50% | 80% | 95% | 100% | 70% | 40% | 80% | 100% | 100% | 100% | 100% | 70% | 85% | 100% | pest or weed control at 63 g/ha ([2]; rate 63 g ai/ha): 50%; pest or weed control at 250 g/ha ([2]; rate 250 g ai/ha): 100%; pest or weed control at 63 g/ha [9]: 100%; pest or weed control at 63 g/ha [10]: 100%; pest or weed control at 63 g/ha [11]: 100%; pest or weed control at 63 g/ha [12]: 40%; pest or weed control at 63 g/ha [13]: 50%; pest or weed control at 63 g/ha [14]: 100%
2 | Cc1nn(-c2c(Cl)cc(Cl)cc2NC(=O)c2ccc3ccccc3c2)c(=O)n1C(F)F [Compound 6-16] | 0% | 0% | 100% | 100% | 10% | 20% | 10% | 30% | 60% | 90% | 0% | 0% | 30% | 90% | 60% | 100% | 100% | 40% | 60% | 75% | pest or weed control at 63 g/ha [9]: 80%; pest or weed control at 63 g/ha [10]: 100%; pest or weed control at 63 g/ha [11]: 100%; pest or weed control at 63 g/ha [12]: 20%; pest or weed control at 63 g/ha [13]: 30%; pest or weed control at 63 g/ha [14]: 100%
3 | COc1c(Cl)cc(Cl)c(-n2nc(C)n(C(F)F)c2=O)c1NC(=O)c1ccc2ccccc2c1 [Compound 6-17] | 0% | 20% | 100% | 100% | 30% | 95% | 10% | 90% | 70% | 99% | 0% | 30% | 30% | 99% | 70% | 90% | 100% | 30% | 30% | 70% | pest or weed control at 63 g/ha [9]: 50%; pest or weed control at 63 g/ha [10]: 90%; pest or weed control at 63 g/ha [11]: 90%; pest or weed control at 63 g/ha [12]: 0%; pest or weed control at 63 g/ha [13]: 0%; pest or weed control at 63 g/ha [14]: 50%
4 | COc1c(Cl)cc(F)c(-c2nn(C)c(C(F)(F)F)c2Cl)c1NC(=O)c1ccc2ccccc2c1 [Compound 7-14] | 10% | 50% | 70% | 100% | 40% | 60% | 0% | 40% | 0% | 70% | 30% | 20% | 60% | 70% | 60% | 90% | 95% | 10% | 20% | 100% | 

Reference: patent US6355799B1, “Substituted benzene compounds, process for their preparation, and herbicidal and defoliant compositions containing them” (ISK Americas Incorporated, priority 1997, dated 2002)
